Assay results reported in patent US20250197374A1, “WEE1 DEGRADING COMPOUNDS AND USES THEREOF” (BRISTOL-MYERS SQUIBB COMPANY, priority 2023, published 2025).

Key:
Assay type in all cases: cell-based
MDA-MB-231 cells = test: MDA-MB-231 cell proliferation assay (Cell-Titer-Glo, 120 hr); conditions: for EC50: Homo sapiens, MDA-MB-231, 120 h, read-out: MDA-MB 231 Cell Prolif. 120 hr EC50; for MDA-MB 231 Cell Prolif. 120 hr YMin (%): minimal percent of DMSO control observed
Method in brief: (§1)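 MKN45 (400/well) and MDA-MB-231 (800/well) cells in RPMI with 10% FBS were exposed to 10-point half-log doses from 1 or 10 uM (0.1% DMSO) for 120 h at 37 °C. Viability was read by CellTiter-Glo luminescence. EC50 came from blank-subtracted, %DMSO four-parameter fits, with Ymin-obs as the lowest %DMSO observed.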

MKN45 cells = test: MKN45 cell proliferation assay (Cell-Titer-Glo, 120 hr); conditions: for EC50: Homo sapiens, MKN-45, 120 h, read-out: MKN45 Cell Prolif. 120 hr EC50; for MKN45 Cell Prolif. 120 hr YMin (%): minimal percent of DMSO control observed
Method in brief: as §1

WEE1 = biological target: T1, WEE1 (Homo sapiens, UniProt P30291+Q96SW2); test: WEE1-ePL degradation assay (293T-LentiX, InCELL Hunter luminescence, 4 hr); conditions: for DC50: LentiX-HEK293T cells expressing WEE1-ePL, 4 hr incubation, read-out: 293T-LentiX WEE1-ePL Degradation 4 hr EC50; for 293T-LentiX WEE1-ePL Degradation 4 hr YMin (%): lower limit of fit, % of DMSO control signal remaining
T1 construct: C-terminal ePL-tagged (DiscoverX, Fremont, CA) full-length WEE1 expression construct; expressed in transfected cells; host or cells: LentiX-HEK293T (Invitrogen), lentivirally transduced; the cells also over-express GSPT1-GN
T1 sequence (P30291 whole entry): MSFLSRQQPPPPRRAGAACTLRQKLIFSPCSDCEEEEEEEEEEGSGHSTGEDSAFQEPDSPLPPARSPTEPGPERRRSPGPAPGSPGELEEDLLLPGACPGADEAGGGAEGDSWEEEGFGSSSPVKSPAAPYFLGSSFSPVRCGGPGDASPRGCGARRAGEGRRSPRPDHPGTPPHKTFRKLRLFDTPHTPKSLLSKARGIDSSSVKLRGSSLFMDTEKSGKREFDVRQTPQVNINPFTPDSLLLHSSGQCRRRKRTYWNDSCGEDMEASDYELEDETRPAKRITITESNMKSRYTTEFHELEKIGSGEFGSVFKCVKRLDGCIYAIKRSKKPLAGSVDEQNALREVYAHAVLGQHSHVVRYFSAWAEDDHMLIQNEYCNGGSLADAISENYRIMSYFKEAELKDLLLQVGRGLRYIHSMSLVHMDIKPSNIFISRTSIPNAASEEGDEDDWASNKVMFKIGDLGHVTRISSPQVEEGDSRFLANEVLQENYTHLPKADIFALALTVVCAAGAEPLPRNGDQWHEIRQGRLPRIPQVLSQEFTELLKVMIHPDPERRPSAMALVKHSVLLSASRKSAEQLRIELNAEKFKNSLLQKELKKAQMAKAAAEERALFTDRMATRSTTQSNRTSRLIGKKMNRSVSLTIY
T1 sequence (Q96SW2 whole entry): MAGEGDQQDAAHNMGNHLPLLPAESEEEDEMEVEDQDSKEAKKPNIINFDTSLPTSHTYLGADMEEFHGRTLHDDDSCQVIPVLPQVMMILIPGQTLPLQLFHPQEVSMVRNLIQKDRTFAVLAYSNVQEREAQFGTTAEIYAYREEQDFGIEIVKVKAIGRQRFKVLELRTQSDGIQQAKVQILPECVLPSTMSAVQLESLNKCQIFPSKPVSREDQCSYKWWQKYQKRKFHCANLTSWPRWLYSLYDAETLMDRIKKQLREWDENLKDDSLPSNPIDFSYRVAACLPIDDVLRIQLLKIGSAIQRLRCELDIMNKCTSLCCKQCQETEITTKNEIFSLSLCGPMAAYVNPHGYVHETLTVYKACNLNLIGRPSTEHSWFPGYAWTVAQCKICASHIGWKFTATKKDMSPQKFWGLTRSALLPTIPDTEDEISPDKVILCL
T1 sequence (Q16531 whole entry partner): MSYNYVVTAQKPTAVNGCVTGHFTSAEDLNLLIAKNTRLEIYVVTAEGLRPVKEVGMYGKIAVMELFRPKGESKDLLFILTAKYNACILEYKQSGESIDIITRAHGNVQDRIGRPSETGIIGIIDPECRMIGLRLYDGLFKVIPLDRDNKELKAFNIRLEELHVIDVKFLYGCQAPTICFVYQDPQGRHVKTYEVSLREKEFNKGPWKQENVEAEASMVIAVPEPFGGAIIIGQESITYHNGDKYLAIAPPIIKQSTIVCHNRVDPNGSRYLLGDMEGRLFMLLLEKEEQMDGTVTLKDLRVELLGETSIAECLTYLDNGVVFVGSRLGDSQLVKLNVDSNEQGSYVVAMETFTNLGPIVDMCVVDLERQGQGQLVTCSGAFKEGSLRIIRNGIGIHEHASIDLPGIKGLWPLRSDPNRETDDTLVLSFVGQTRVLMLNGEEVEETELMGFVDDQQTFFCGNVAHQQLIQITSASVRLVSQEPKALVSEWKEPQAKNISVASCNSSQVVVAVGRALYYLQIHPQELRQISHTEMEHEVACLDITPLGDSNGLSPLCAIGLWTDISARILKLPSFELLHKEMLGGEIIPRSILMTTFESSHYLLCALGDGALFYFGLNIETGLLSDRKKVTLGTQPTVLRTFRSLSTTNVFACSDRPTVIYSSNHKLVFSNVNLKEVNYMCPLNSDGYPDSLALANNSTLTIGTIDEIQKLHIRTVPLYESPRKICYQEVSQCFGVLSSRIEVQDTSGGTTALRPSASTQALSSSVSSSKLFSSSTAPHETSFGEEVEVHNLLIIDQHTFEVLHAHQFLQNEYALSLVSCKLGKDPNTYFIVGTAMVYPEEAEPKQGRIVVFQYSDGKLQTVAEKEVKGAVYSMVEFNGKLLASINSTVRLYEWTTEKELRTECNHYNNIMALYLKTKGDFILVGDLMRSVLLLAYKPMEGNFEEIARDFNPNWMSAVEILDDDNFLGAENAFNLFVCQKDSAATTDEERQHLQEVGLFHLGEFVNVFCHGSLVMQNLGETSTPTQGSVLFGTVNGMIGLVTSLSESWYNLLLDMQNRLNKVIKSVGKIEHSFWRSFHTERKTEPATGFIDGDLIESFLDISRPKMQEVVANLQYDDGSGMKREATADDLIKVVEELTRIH
Method in brief: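 LentiX-HEK293T cells expressing C-terminally ePL-tagged full-length WEE1 plus non-degradable GSPT1-GN (G575N, N-terminal 158 aa truncated). Treated 4 h at 37 °C with a 10-point, 3-fold series from 1 or 10 µM, then read by InCELL Hunter luminescence. EC50 from four-parameter logistic fit, Ymax set by DMSO control.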

EC50 (MDA-MB-231 cells) [nM] | EC50 (MKN45 cells) [nM] | DC50 (WEE1) [nM] | 293T-LentiX WEE1-ePL Degradation 4 hr YMin (%) (WEE1) | SMILES | MDA-MB 231 Cell Prolif. 120 hr YMin (%) (MDA-MB-231 cells) | MKN45 Cell Prolif. 120 hr YMin (%) (MKN45 cells)
133 | 5 | 2 | 20.2 | O=C1CC[C@H](N2Cc3cc(O[C@@H]4CN(Cc5cc(F)c6nc(C7CCOCC7)ccc6c5)C[C@H]4CO)ccc3C2=O)C(=O)N1 [Example 139, (3S)-3-(5-{[(3S,4S)-1-{[8-fluoro-2-(oxan-4-yl)quinolin-6-yl]methyl}-4-(hydroxymethyl)pyrrolidin-3-yl]oxy}-1-oxo-2,3-dihydro-1H-isoindol-2-yl)piperidine-2,6-dione] | 65.9 | 10.3
56 | 1 | 1 | 25.3 | O=C1CC[C@H](N2Cc3cc(O[C@@H]4CN(Cc5cc(F)c6ncc(N7CCOCC7)cc6c5)C[C@H]4COC(F)(F)F)ccc3C2=O)C(=O)N1 [Example 140, (3S)-3-(5-{[(3S,4S)-1-{[8-fluoro-3-(morpholin-4-yl)quinolin-6-yl]methyl}-4-[(trifluoromethoxy)methyl]pyrrolidin-3-yl]oxy}-1-oxo-2,3-dihydro-1H-isoindol-2-yl)piperidine-2,6-dione] | 24.8 | 8.3
44 | 1 | 1 | 26.5 | COC[C@@H]1CN(Cc2cc(F)c3nc(N4CCN(C5COC5)CC4)ncc3c2)C[C@H]1Oc1ccc2c(c1)CN([C@H]1CCC(=O)NC1=O)C2=O [Example 141, (3S)-3-(5-{[(3S,4S)-1-({8-fluoro-2-[4-(oxetan-3-yl)piperazin-1-yl]quinazolin-6-yl}methyl)-4-(methoxymethyl)pyrrolidin-3-yl]oxy}-1-oxo-2,3-dihydro-1H-isoindol-2-yl)piperidine-2,6-dione] | 31.7 | 11.4
24 | 1 | – | 19.9 | COC[C@@H]1CN(Cc2cc(F)c3nc(N4CCN(C5COC5)CC4)ccc3c2)C[C@H]1Oc1ccc2c(c1)CN([C@H]1CCC(=O)NC1=O)C2=O [Example 142, (3S)-3-(5-{[(3S,4S)-1-({8-fluoro-2-[4-(oxetan-3-yl)piperazin-1-yl]quinolin-6-yl}methyl)-4-(methoxymethyl)pyrrolidin-3-yl]oxy}-1-oxo-2,3-dihydro-1H-isoindol-2-yl)piperidine-2,6-dione] | 43.3 | 7.1
27 | 1 | 1 | 27.3 | COC[C@@H]1CN(Cc2cc(F)c3nc(C4CCN(C5COC5)CC4)ccc3c2)C[C@H]1Oc1ccc2c(c1)CN([C@H]1CCC(=O)NC1=O)C2=O [Example 143, (3S)-3-(5-{[(3S,4S)-1-({8-fluoro-2-[1-(oxetan-3-yl)piperidin-4-yl]quinolin-6-yl}methyl)-4-(methoxymethyl)pyrrolidin-3-yl]oxy}-1-oxo-2,3-dihydro-1H-isoindol-2-yl)piperidine-2,6-dione] | 35.5 | 8.9
